Laboratory results taken from patent publication US9944583B2, “Methods for ameliorating and preventing central nervous system inflammation” (THE REGENTS OF THE UNIVERSITY OF CALIFORNIA, priority 2007, dated 2018).
Entries after “also recorded” stand apart in the source; their conditions may differ.

Assays:
NADPH oxidase = target: T1, NADPH oxidase (Mus musculus, UniProt Q61093); experiment: EPR superoxide production by forebrain synaptosomes exposed to IL-6; format: biochemical; details: apocynin 0.4 mM applied 5 min before IL-6
T1 sequence (Q61093 1-570): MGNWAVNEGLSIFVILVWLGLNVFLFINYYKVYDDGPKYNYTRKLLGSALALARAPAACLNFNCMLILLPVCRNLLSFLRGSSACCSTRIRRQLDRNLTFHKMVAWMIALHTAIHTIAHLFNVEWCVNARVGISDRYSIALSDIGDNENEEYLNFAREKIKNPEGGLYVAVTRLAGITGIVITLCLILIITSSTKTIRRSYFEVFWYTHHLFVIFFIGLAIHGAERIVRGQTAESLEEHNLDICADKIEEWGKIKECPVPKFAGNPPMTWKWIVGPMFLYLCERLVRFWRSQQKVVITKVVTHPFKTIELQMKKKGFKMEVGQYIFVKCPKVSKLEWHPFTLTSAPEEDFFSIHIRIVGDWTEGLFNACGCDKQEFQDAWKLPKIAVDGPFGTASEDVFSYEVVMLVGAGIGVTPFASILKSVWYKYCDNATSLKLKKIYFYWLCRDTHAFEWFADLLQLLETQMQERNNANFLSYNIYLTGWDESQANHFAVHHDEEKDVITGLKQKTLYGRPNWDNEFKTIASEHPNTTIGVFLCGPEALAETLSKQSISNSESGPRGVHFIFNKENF
T1 sequence (Q61462 1-192 partner): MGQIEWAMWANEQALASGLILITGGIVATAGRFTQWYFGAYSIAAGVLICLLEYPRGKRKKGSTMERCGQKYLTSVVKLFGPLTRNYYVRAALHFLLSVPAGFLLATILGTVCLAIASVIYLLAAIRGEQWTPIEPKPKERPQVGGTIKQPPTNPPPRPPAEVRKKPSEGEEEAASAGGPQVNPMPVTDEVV

[1] = test system: primary neuronal cultures; experiment: DHE oxidation (superoxide and/or hydrogen peroxide production) in primary neuronal cultures exposed to ketamine; format: cell-based, mouse
[2] = test system: primary neuronal cultures; experiment: IL-6 exposure of primary neuronal cultures: oxidized DHE, Nox2, parvalbumin and GAD67; format: cell-based, mouse
Method: IL-6 increases superoxide in a Nox dependent manner, and reduces GAD67 and parvalbumin in primary cultures, as summarized by the data graphically presented in FIG. 18. […] As before, dihydroethidium (DHE) was applied for the last hour (DHE detects superoxide and hydrogen peroxide). After fixation, ICC for PV and GAD67 was carried out as described in methods and quantitative confocal microscopy was utilized for fluorescence analysis.
DHE (1 μg/ml) was added during the last hour of treatment. Images show the increase in Nox2 immunoreactivity and oxidized DHE upon treatment with IL-6. Bar-graphs show the results of quantification of oxidized DHE and Nox2 fluorescence expressed as % of control. […] Data are means±SEM. Baseline intensities: DHE=21±4.7; Nox2=18.7±2.6.
Fluorescence confocal images of representative fields depicting the expression of parvalbumin (PV) and GAD67 in PV-interneurons. Bar-graph represents the quantification of fluorescence expressed as % of control. […] Data are means±SEM. Baseline intensities: PV=135±32; GAD67=114±26.
IL-6 potentiates ketamine effects on PV-interneurons. […] After fixation, ICC for GAD67 and parvalbumin was carried out as described by Kinney (2006) J. Neurosci. […] N=3 cultures per condition.

PV-interneurons = experiment: parvalbumin and GAD67 immunoreactivity in PV-interneurons in primary neuronal cultures; details: co-exposure with ketamine 24 h; muscimol 10 μM, C3, apocynin 0.5 mM

COc1cc(C(C)=O)ccc1O [apocynin, 4-hydroxy-3-methoxyacetophenone]
effect on IL-6-induced increase in superoxide (EPR) (NADPH oxidase): completely blocked | effect on ketamine-mediated increase in oxidized DHE ([1]; co-exposure with ketamine 0.5 μM 24 h, muscimol 10 μM, C3 20 μM, apocynin 0.5 mM): significantly reduced | effect on ketamine-mediated increase in ROS / free radical production (DHE fluorescence) ([1]; ketamine with 1 μM C3 or 500 μM apocynin for 24 h): prevented | effect on IL-6 effects (DHE oxidation, GAD67 and parvalbumin) ([2]; apocynin 0.5 mM with IL-6 10 ng/ml, 24 h): prevented | effect on IL-6-induced superoxide production ([2]; apocynin added along with IL-6): eliminated | effect on Nox2 induction by IL-6 ([2]; apocynin added along with IL-6): not affected | effect on ketamine-mediated loss of parvalbumin and GAD67 immunoreactivity in PV-interneurons (PV-interneurons): prevented; also recorded: attenuated
